Measured values from patent US10596223B2, “JNK inhibitor molecules for treatment of various diseases” (Xigen Inflammation Ltd., priority 2011, dated 2020).
Square brackets hold non-standard residues; d marks the D form. Peptide text beside a SMILES is read from it.

Legend:
[1] = test system: THP1-PMA-differentiated macrophages; assay: LPS-induced cytokine and chemokine release in PMA differentiated THP1 macrophages (ELISA); format: cell-based, human
Procedure: In the following the procedure will be set forth describing how the released amount of several human cytokines after ligand induced secretion from human cells (Blood, WBC, PBMC, purified primary lymphocytes, cell lines, . . . ) was measured.
The technique used is a Sandwich ELISA, which allows measuring the amount of antigen between two layers of antibodies (i.e. capture and detection antibody). The antigen to be measured must contain at least two antigenic sites capable of binding to antibody, since at least two antibodies act in the sandwich. Either monoclonal or polyclonal antibodies can be used as the capture and detection antibodies in Sandwich ELISA systems. Monoclonal antibodies recognize a single epitope that allows fine detection and quantification of small differences in antigen. A polyclonal is often used as the capture antibody to pull down as much of the antigen as possible.
The method may be used to determine the effect of the JNK inhibitors of the present invention in vitro/cell culture. At non toxic doses, compound efficacy is indicated by the decrease of the cytokine levels (the variation of optical density (absorbance at 450 nm)) as compared to non-treated samples and is monitored by ELISA. Results are express in ng/ml.
In the following the procedure will be set forth describing how cytokine production from human PMA differentiated THP1 cells challenged by LPS for 6 h was induced in order to test the ability of JNK inhibitors of the present invention, in particular of a JNK inhibitor with SEQ ID NO: 172, to reduce stimulation-induced cytokine release. THP1 cells were stimulated ex-vivo by different ligands for the readout of cytokine release. At non toxic doses, JNK inhibitor efficacy is indicated by the decrease of the cytokine levels as compared to non-treated samples and is monitored by ELISA. The toxicity of the compound are evaluated by the reduction of a tretazolium salt (MTS) to formazan, giving a purple colour.
a. Material • Cell Line: THP-1 (Ref TIB-202, ATCC, lot 57731475) • Culture medium, reagent and plates • RPMI (Ref 21875-091, Invitrogen) complemented with: • 10% FBS (Ref A15-151, PAA): decomplemented at 56° C., 30 min. • 10 mM Hepes (Ref H0887, Sigma) • 50 μM β-mercaptoethanol (Ref 63690, Fluka: stock at 14.3M): add 560 μl of 50 mM aliquots in PBS stocked at −20° C.) • 1 mM Sodium Pyruvate (Ref 58636, Sigma) • Penicilline (100 unit/ml)/Streptomycine (100 μg/ml) (Ref P4333, Sigma) • The RPMI medium is then filtrated with a […] (Ref SCGPU05RE, Millipore). • PBS 10× (Ref 70011, Invitrogen): diluted to 1× with sterile H2O • DMSO: Ref 41444, Fluka • PMA (phorbol 12-myristate 13-acetate, Ref P1585, Sigma, concentration 1 mM=616.8 ug/ml in DMSO at −20° C.). […]

[2] = test system: endotoxins-induced uveitis albino rat model; assay: Endotoxins induced uveitis (EIU), single intravenous injection, clinical scoring 24 hours after LPS; format: in vivo; set-up: key to clinical score of ocular inflammation, mean score (mean±SEM) / clinical score of ocular inflammation, median: ocular inflammation score per eye, 0 = none to 4 = intense (+1 fibrin); settings: for clinical score of ocular inflammation, mean score (mean±SEM) / clinical score of ocular inflammation, median: 24 hours after LPS
Procedure: FIG. 28 Clinical evaluation of administration of different amounts of the JNK inhibitor according to SEQ ID NO: 172 in albino rats after intravenous administration (endotoxins induced uveitis model). Form left to right: Vehicle, 0.015 mg/kg (i.v.) of SEQ ID NO: 172; 0.18 mg/kg (i.v.) of SEQ ID NO: 172; 1.8 mg/kg (i.v.) of SEQ ID NO: 172, 2 mg/kg (i.v.) of SEQ ID NO: 197 and 20 μg dexamethasone (administered directly by subconjunctival injection to the eye). Indicated is the clinical score (mean and the SEM).
The anti-inflammatory potency of the JNK inhibitor of SEQ ID NO: 172 was tested in albino rats following intravenous administration (EIU/LPS model). The aim of this study was to determine the effects of single intravenous injections of SEQ ID NO: 172 (0.015, 0.18, and 1.80 mg/kg) on the inflammatory response in an endotoxins-induced uveitis albino rat model and to compare these affects to those obtained with prior art JNK inhibitor of SEQ ID NO: 197 (2 mg/kg). As a further control served phosphate sodic dexamethasone.
Sixty (60) male Lewis rats were randomly divided into six (6) groups of ten (10) animals each. EIU was induced by footpad injection of lipopolysaccharide (LPS, 1 mg/kg). NaCl (0.9%), SEQ ID NO: 197 at 2 mg/kg and SEQ ID NO: 172 at three concentrations (1.80 mg/kg, 0.18 mg/kg and 0.015 mg/kg) were administered by intravenous injection. Phosphate sodic dexamethasone ([…]) was administered by sub-conjunctival injection in both eyes. 24 hours after LPS injection, inflammatory response was evaluated by clinical scoring.
The intensity of clinical ocular inflammation was scored on a scale from 0 to 4 for each eye: • Grade 0 no inflammation • Grade 1 slight iris and conjunctival vasodilation • Grade 2 moderate iris and conjunctival vasodilation with flare • Grade 3 intense iris and conjunctival vasodilation with flare • Grade 4 intense inflammatory reaction • (+1) fibrin formation and seclusion of pupils

[3] = THP1 differentiated macrophages, LPS 6 h (10 ng/ml)

CC(C)C[C@H](NC(=O)[C@H](CC(N)=O)NC(=O)[C@H](CC(C)C)NC(=O)[C@@H](NC(=O)[C@@H](C)NC(=O)[C@@H]1CCCN1C(=O)[C@H](CCCNC(=N)N)NC(=O)[C@@H](CCCCN)NC(=O)[C@@H]1CCCN1C(=O)[C@H](CCCNC(=N)N)NC(=O)[C@@H](CCCNC(=N)N)NC(=O)[C@H](CCCNC(=N)N)NC(=O)[C@H](CCCNC(=N)N)NC(=O)[C@H](CCC(N)=O)NC(=O)[C@@H](CCCNC(=N)N)NC(=O)[C@H](CCCNC(=N)N)NC(=O)[C@H](CCCCN)NC(=O)[C@H](CCCCN)NC(=O)[C@H](N)CCCNC(=N)N)[C@@H](C)O)C(=O)N[C@H](Cc1ccccc1)C(N)=O [SEQ ID NO: 172, rKKRrQRRrRPkRPaTLNLf] (H-[dR]KKR[dR]QRR[dR]RP[dK]RP[dA]TLNL[dF]-NH2; N-terminus assumed)
LPS-induced TNFα release, potency comparison ([1]; PMA differentiated macrophages): higher potency than D-TAT-IB1 (SEQ ID NO: 197) and L-TAT-IB1 (SEQ ID NO: 196)
LPS-induced IL-6 release, potency comparison ([1]; PMA differentiated macrophages, LPS 6 h): higher potency than D-TAT-IB1 (SEQ ID NO: 197) and L-TAT-IB1 (SEQ ID NO: 196)
LPS-induced IL6 release, potency comparison [1, 3]: higher potency than D-TAT-IB1 (SEQ ID NO: 197), dTAT (SEQ ID NO: 45) and SP 600125
LPS-induced TNFα release, potency comparison [1, 3]: higher potency than D-TAT-IB1 (SEQ ID NO: 197), dTAT (SEQ ID NO: 4.5) and SP 600125
clinical score of ocular inflammation, mean score (mean±SEM) ([2]; 0.015 mg/kg intravenous): 2.3±0.3
clinical score of ocular inflammation, median ([2]; 0.015 mg/kg intravenous): 2
clinical score of ocular inflammation, mean score (mean±SEM) ([2]; 0.18 mg/kg intravenous): 2.4±0.3
clinical score of ocular inflammation, median ([2]; 0.18 mg/kg intravenous): 2
clinical score of ocular inflammation, mean score (mean±SEM) ([2]; 1.80 mg/kg intravenous): 2.1±0.3
clinical score of ocular inflammation, median ([2]; 1.80 mg/kg intravenous): 2
endotoxin-induced inflammation in the anterior chamber (conclusion) ([2]; single intravenous injection, SEQ ID NO: 197 at 2 mg/kg, SEQ ID NO: 172 at 0.015, 0.18, 1.80 mg/kg): also reduced the endotoxin-induced inflammation
